Assay results reported in patent US20220306623A1, “PYRIDYL OR PYRIMIDYL MTOR KINASE INHIBITORS” (GLAXOSMITHKLINE INTELLECTUAL PROPERTY DEVELOPMENT LIMITED, priority 2019, published 2022).

Test system: phosphorylated Akt at serine 473 (pAKTs473) in primary human lung fibroblasts
Experiment: High throughput phosphorylated Akt (Ser473) in vitro immunoassay (MSD)
Assay type: cell-based
Conditions: Fibroblast, primary human lung fibroblasts (Lonza), 384-well, compound 1 h, PDGF-BB 10 ng/ml 10 min, read-out: mean pIC50, pAKTser473 high throughput immunoassay (converted)
Source text: Immunoassay to measure effect of test compounds on phosphorylated Akt at serine 473 (pAKTs473) in primary human lung fibroblasts (Lonza Group Ltd, Basel, Switzerland, Catalogue No. CC-2512) using the MesoScale Discovery (MSD) platform to quantify levels of total Akt and pAKTser473.
Human lung fibroblasts were routinely maintained in fibroblast basal medium supplemented with 2% foetal bovine serum (FBS), 0.1% human fibroblast growth factor (FGF)-B, 0.1% insulin, 0.1% GA-100 (Lonza Group Ltd, Basel, Switzerland, Catalogue No. CC-3132) at 37° C. in 5% CO2 according to the manufacturer's protocol.
For the assay, cells were harvested using Trypsin/EDTA, (Lonza Group Ltd, Basel, Switzerland, Catalogue No. CC-5012), at working concentration of 0.025%, resuspended to give 3×10^5 cells/ml and 50 ul/well seeded into 384-well plates (Greiner Group, Kremsmunster, Austria, Catalogue No. 781091) in media containing 0.4% FBS and incubated o/n at 37° C. in 5% CO2.
Test compounds were dissolved in 100% DMSO to give 10 mM stock solutions and serially diluted to generate an 11-point concentration response curve. Compound were further diluted by […] into 384-well V-bottom polypropylene plates (Greiner Group, Kremsmunster, Austria, Catalogue No. 781280) with media containing 0.4% FBS to give 50 µM top compound concentration in 0.5% DMSO.
Compounds were transferred to 384-well plates contacting cells (0.1% DMSO final) and incubated for 1 h at 37° C. in 5% CO2, prior to stimulation with platelet-derived growth factor (PDGF)-BB (R&D Systems, Catalogue No. 220-BB) at 10 ng/ml (final) for 10 min at RT. Cell assay plates were incubated on ice and treated with lysis buffer (Cell Signalling Technology, Catalogue No. 9806) containing protease and phosphatase inhibitors (Thermo Scientific, Catalogue No. 78444) followed by shaking for 30 min at 4° C.
MSD plates (MSD, MA6000 384-well GAR plate, Catalogue No. L21RA-2) were blocked with blocking buffer containing TBS (MSD, Cat. No. R61TX-1) with 0.5% bovine serum albumin (BSA) (Sigma Aldrich, Cat. No. A7906), 0.1% tween-20 (Sigma Aldrich, Catalogue No. P2287) and coated with rabbit-anti-human pAkt (s473) ab (Cell Signalling Technology, Catalogue No. CST #4060) at RT with shaking, followed by washing (×3) with 1×TBS wash reagent containing 0.1% Tween-20. Cell lysates (30 ul) were added and MSD plates centrifuged at 1000 rpm at 4° C. o/n.
Plates were washed with 1×TBS wash buffer (×3), prior to addition of mouse-anti-human-total Akt ab (1 mg/ml) (Upstate (Milipore), Catalogue No. 05-591) in blocking buffer and shaken at RT for 1 h. After washing with 1×TBS wash buffer (×3), plates were incubated with goat-anti-mouse SULFO-TAG detection ab (MSD, Catalogue No. R32AC-1) (1:500 in blocking buffer) for 1 h at RT. Plates were washed with 1×TBS (×3) and read buffer (2×) (MSD, Catalogue No. R92TC-1) added before detecting electrochemiluminescence (MSD Sector Imager 6000).
Data analysis was performed by determining % inhibition values for test compounds relative to the minimum (+PDGF-BB stimulation) and maximum responses (no PDGF-BB stimulation) with non-linear regression analysis to determine IC50 values for test compounds.

Row | SMILES | IC50
1 | CC[C@H]1COCCN1c1cc(C2(S(C)(=O)=O)CCOCC2)nc(-c2ccc3[nH]c(C)cc3n2)n1 [Example 13, (3S)-3-ethyl-4-[6-(4-methanesulfonyloxan-4-yl)-2-{2-methyl-1H-pyrrolo[3,2-b]pyridin-5-yl}pyrimidin-4-yl]morpholine] | 0.00251 to 0.0251 µM
2 | CC[C@H]1COCC(=O)N1c1cc(CS(C)(=O)=O)nc(-c2ccc3[nH]c(C)cc3n2)n1 [Example 14, (5S)-5-ethyl-4-[6-(methanesulfonylmethyl)-2-{2-methyl-1H-pyrrolo[3,2-b]pyridin-5-yl}pyrimidin-4-yl]morpholin-3-one] | 0.00251 to 0.0251 µM
3 | CC[C@H]1COCC(=O)N1c1cc(C2(S(C)(=O)=O)CCOCC2)cc(-c2ccc3[nH]c(CO)cc3n2)n1 [Example 26] | 0.00251 to 0.0251 µM
4 | CC[C@H]1COCCN1c1cc(CS(C)(=O)=O)nc(-c2ccc3[nH]c(CNC)cc3n2)n1 [Example 1, [(5-{4-[(3S)-3-ethylmorpholin-4-yl]-6-(methanesulfonylmethyl)pyrimidin-2-yl}-1H-pyrrolo[3,2-b]pyridin-2-yl)methyl](methyl)amine] | 0.00251 to 0.0251 µM
5 | CC[C@H]1COCCN1c1cc(CS(=O)(=O)NC)nc(-c2ccc3[nH]c(CO)cc3n2)n1 [Example 10, 1-{6-[(3S)-3-ethylmorpholin-4-yl]-2-[2-(hydroxymethyl)-1H-pyrrolo[3,2-b]pyridin-5-yl]pyrimidin-4-yl}-N-methylmethanesulfonamide] | 0.00251 to 0.0251 µM
6 | CC[C@H]1COCC(=O)N1c1cc(CS(C)(=O)=O)cc(-c2ccc3[nH]c(C)cc3n2)n1 [Example 24, (S)-5-ethyl-4-(6-(2-methyl-1H-pyrrolo[3,2-b]pyridin-5-yl)-4-((methylsulfonyl)methyl)pyridin-2-yl)morpholin-3-one] | 0.00251 to 0.0251 µM
7 | CC[C@H]1COCCN1c1cc(CS(=O)(=O)N(C)C)nc(-c2ccc3[nH]c(CNC)cc3n2)n1 [Example 16, 1-{6-[(3S)-3-ethylmorpholin-4-yl]-2-{2-[(methylamino)methyl]-1H-pyrrolo[3,2-b]pyridin-5-yl}pyrimidin-4-yl}-N,N-dimethylmethanesulfonamide] | 0.00251 to 0.0251 µM
8 | CNCc1cc2nc(-c3cc(CS(C)(=O)=O)cc(N4CCO[C@H](C)[C@H]4C)n3)ccc2[nH]1 [Example 8, 1-(5-(6-((2R,3R)-2,3-dimethylmorpholino)-4-((methylsulfonyl)methyl)pyridin-2-yl)-1Hpyrrolo[3,2-b]pyridin-2-yl)-Nmethylmethanamine] | 0.00251 to 0.0251 µM
9 | CC[C@H]1COCCN1c1cc(CS(=O)(=O)N(C)C)nc(-c2ccc3[nH]c(CO)cc3n2)n1 [Example 9, 1-{6-[(3S)-3-ethylmorpholin-4-yl]-2-[2-(hydroxymethyl)-1H-pyrrolo[3,2-b]pyridin-5-yl]pyrimidin-4-yl}-N,N-dimethylmethanesulfonamide] | 0.00251 to 0.0251 µM
10 | CC[C@H]1COCC(=O)N1c1cc(C2(S(C)(=O)=O)CCOCC2)cc(-c2ccc3[nH]c(C)cc3n2)n1 [Example 25, (S)-5-ethyl-4-(6-(2-methyl-1H-pyrrolo[3,2-b]pyridin-5-yl)-4-(4-(methylsulfonyl)tetrahydro-2H-pyran-4-yl)pyridin-2-yl)morpholin-3-one] | 0.00251 to 0.0251 µM
11 | CCc1cc2nc(-c3nc(CS(C)(=O)=O)cc(N4C(=O)COC[C@@H]4CC)n3)ccc2[nH]1 [Example 15, (5S)-5-ethyl-4-(2-{2-ethyl-1H-pyrrolo[3,2-b]pyridin-5-yl}-6-(methanesulfonylmethyl)pyrimidin-4-yl)morpholin-3-one] | 0.00251 to 0.0251 µM
12 | CC[C@H]1COCCN1c1cc(CS(N)(=O)=O)cc(-c2ccc3[nH]c(C)cc3n2)n1 [Example 23, (S)-(2-(3-ethylmorpholino)-6-(2-methyl-1H-pyrrolo[3,2-b]pyridin-5-yl)pyridin-4-yl)methanesulfonamide] | 0.00251 to 0.0251 µM
